Results as given in publication PMC3914206.

Columns and labels:
panel of 442 kinases [1] = target: T1, panel of 442 kinases (Homo sapiens, UniProt Q96BR1); type: binding; settings: kinase SGK3; compound concentration 10 µM
T1 construct: purchased KINOMEscan
T1 sequence (Q96BR1 1-496): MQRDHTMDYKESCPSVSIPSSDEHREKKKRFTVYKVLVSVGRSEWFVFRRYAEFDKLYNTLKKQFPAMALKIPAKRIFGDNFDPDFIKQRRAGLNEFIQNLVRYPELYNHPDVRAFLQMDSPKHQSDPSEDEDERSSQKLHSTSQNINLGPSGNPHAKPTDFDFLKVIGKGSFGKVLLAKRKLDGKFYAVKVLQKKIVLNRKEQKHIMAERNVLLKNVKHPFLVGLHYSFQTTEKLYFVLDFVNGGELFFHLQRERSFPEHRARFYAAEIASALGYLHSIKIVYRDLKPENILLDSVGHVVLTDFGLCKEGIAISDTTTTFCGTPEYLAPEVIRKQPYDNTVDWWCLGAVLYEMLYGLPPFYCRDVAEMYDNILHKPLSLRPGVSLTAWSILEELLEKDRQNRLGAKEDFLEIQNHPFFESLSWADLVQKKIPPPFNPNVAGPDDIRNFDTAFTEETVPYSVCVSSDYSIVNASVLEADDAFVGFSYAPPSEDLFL
Text: (§1) We assessed the selectivity of members of this scaffold using the KINOMEscan methodology across a near comprehensive panel of 442 kinases [[18,27]].

panel of 442 kinases [2] = target: T2, panel of 442 kinases (Homo sapiens, UniProt O96017); type: binding; settings: Compound Concentration 10 µM
T2 construct: purchased KINOMEscan
Text: as §1

T2 sequence (O96017 whole entry): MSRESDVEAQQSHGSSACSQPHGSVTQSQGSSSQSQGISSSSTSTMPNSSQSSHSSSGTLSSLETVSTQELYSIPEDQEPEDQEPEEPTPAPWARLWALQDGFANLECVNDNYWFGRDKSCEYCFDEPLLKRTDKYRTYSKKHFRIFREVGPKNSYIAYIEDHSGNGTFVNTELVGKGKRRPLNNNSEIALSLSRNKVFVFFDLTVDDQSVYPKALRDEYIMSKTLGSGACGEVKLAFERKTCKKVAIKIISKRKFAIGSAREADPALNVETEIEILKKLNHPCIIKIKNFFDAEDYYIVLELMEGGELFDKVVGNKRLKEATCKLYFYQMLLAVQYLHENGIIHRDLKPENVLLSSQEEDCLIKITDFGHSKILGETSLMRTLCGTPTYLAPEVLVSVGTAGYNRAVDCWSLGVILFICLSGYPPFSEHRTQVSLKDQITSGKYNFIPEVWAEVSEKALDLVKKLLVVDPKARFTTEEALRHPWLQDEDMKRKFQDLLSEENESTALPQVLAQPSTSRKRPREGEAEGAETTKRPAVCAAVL

Compound	% Ctrl, SGK3 (panel of 442 kinases [1]) [% Ctrl]	KINOMEscan: CHEK2 (panel of 442 kinases [2])
COc1cc(C(=O)N2CCC(N3CCN(C)CC3)CC2)ccc1Nc1ncc2c(n1)N1CCc3cccc(c31)C(=O)N2C [Compound 24]	100	–
CCOc1cc(C(=O)N2CCC(N3CCN(C)CC3)CC2)ccc1Nc1ncc2c(n1)N(C1CCCC1)c1ccccc1C(=O)N2C [Compound 26]	83	100
COc1cc(C(=O)N2CCC(N3CCN(C)CC3)CC2)ccc1Nc1ncc2c(n1)N(C1CCCC1)c1ccccc1C(=O)N2C [Compound 25, 11-cyclopentyl-2-((2-methoxy-4-(4-(4-methylpiperazin-1-yl)piperidine-1-carbonyl)phenyl)amino)-5-methyl-5H-benzo[e]pyrimido[5,4-b][1,4]diazepin-6(11H)-one]	100	100
COc1cc(C(=O)N2CCC(N3CCN(C)CC3)CC2)ccc1Nc1ncc2c(n1)N(C)c1ccccc1C(=O)N2C [15 (LRRK2-IN-1)]	95	66
